In patent publication US20030220266A1, “Method of treating a disease” (priority 2001, published 2003):
Entries after “also recorded” stand apart in the source; their conditions may differ.

Tests used:
Assay type in all cases: cell-based, human
[1] = system: COX-2, EP2 and EP4 expression in HeLa cells; assay: Real-time RT-PCR of COX-2, EP2 and EP4 in HeLa cells treated with seminal plasma; settings: HeLa cells co-treated with seminal plasma and inhibitor
Method: In sexually active women growth and invasiveness of neoplastic cervical cells may be also under the direct influence of PGE present in seminal plasma. […] The expression of COX-2, EP2 and EP4, was measured by real-time RT-PCR.

[2] = system: COX-1, COX-2 and PGES expression in HeLa COX-1 Tet-Off cells; assay: Western blot of COX-1, COX-2 and PGES expression after COX-1 induction; settings: for effect on COX-1-mediated up-regulation of COX-2 expression / effect on COX-1-mediated up-regulation of PGES expression / effect on COX-1 overexpression: co-treatment of cells induced for 24, 48 and 72 hrs
Text: (§1) The Tet-Off expression system we used was developed by Gossen and co-workers (38) to deliver doxycycline-regulated expression based on the high specificity of the Escherichia coli tet repressor-operator-doxycycline interaction. In the Tet-Off expression system each clonal cell line is used as its own control (cells cultured in the presence of DOX) and the overexpression of the integrated target gene is modulated solely by removing DOX from the culture medium. This eliminates the need for a control clonal cell line transfected with vector alone (as used with constitutive stable expression systems) thereby overcoming the inherent variation that arises from different sites of integration of DNA between different clones. HeLa Tet-Off cells containing the pTet-Off vector stably transfected and constitutively expressing the tetracycline-controlled transactivator tTA (composed of a fusion of the TetR and VP16 activation domain) were purchased from Clontech. The pBS(SK−)/PSHI cDNA containing the full length COX-1 gene (kindly supplied by Dr Stephen Prescott, University of Utah, Salt Lake City, Utah) was used as the template plasmid. The response plasmid pTRE2 (containing the minimal cytomegalovirus promoter containing Tet-operator sequences cloned upstream of the cDNA to be expressed) and the plasmid for antibiotic selection (pTK-hygromycin) for use with the Tet-Off system were purchased from Clontech. The COX-1 gene was excised from the template plasmid and ligated at the Bam H1 site of the pTRE2 vector. The orientation of the insert was verified by dideoxy DNA sequencing using the sequence specific primers: 5′-[…]-3′ (SEQ ID No 8) and 5′-[…]-3′ (SEQ ID No 9) (Clontech). Cells were plated in 12 well dishes in complete medium containing 10 μg/ml G418 per well and were allowed to attach and grow overnight. The pTRE2 vector containing the COX-1 gene (2 μg) was co-transfected with pTK-hygromycin (0.1 μg, which contains the hygromycin gene under control of the minimal thymidine kinase (TK) promoter) into the HeLa Tet-Off cell line at about 80% confluency using pfx-5 (Invitrogen, De Schelp, Netherlands) diluted in Optimem (Gibco). Cells were incubated for 4 hrs at 37° C. in 5% humidified CO2. Thereafter the medium was replaced with fresh complete medium containing no G418. Cells were allowed to grow for 72 hrs. Transfected cells were then seeded together with wild-type cells. Clones were selected against 200 μg/ml hygromycin in the presence of 1 μg/ml DOX. At least 50 hygromycin-resistant clones were picked using cloning cylinders. Clones were allowed to grow under continuous selection with hygromycin in the presence of DOX and then screened for the ability to express COX-1 in the presence and absence of DOX by immunoblot analysis. […] Unless otherwise stated, all clones were maintained uninduced in 1 μg/ml DOX, 200 μg/ml hygromycin and 100 μg/ml G418. COX-inhibition studies were conducted by growing cells in medium containing 3 μg/ml indomethacin or 10 μM NS-398.
(§2) Cells were seeded in 5 cm dishes and allowed to attach overnight. The following day, the cells were synchronised by incubating with serum-free medium for 24 hrs. Thereafter, the medium was replaced with fresh complete medium and the cells were grown in the presence or absence of DOX for 24, 48 and 72 hrs respectively. In parallel, cells were co-treated with indomethacin or NS-398. Cells were harvested by lysing in protein lysis buffer (150 mM NaCl, 10 mM Tris-HCl pH 7.4, 1 mM EDTA, 1% Triton X-100, 0.1% SDS). The protein content in the supernatant fraction was determined as described above. The clarified cell lysates (20 μg) were denatured and electrophoresed on 4-20% Tris-Glycine gels (NOVEX, Invitrogen).

[3] = system: bFGF, VEGF, Ang-1 and Ang-2 expression in HeLa COX-1 Tet-Off cells; assay: Western blot of angiogenic factors after COX-1 overexpression; settings: COX-1 overexpression up to 72 hrs
Text: as §1, §2

HeLa COX-1 Tet-Off cells = assay: PGE2 secretion into culture medium (ELISA) after COX-1 induction; settings: 5 μg/ml arachidonic acid
Text: The Tet-Off expression system we used was developed by Gossen and co-workers (38) to deliver doxycycline-regulated expression based on the high specificity of the Escherichia coli tet repressor-operator-doxycycline interaction. In the Tet-Off expression system each clonal cell line is used as its own control (cells cultured in the presence of DOX) and the overexpression of the integrated target gene is modulated solely by removing DOX from the culture medium. This eliminates the need for a control clonal cell line transfected with vector alone (as used with constitutive stable expression systems) thereby overcoming the inherent variation that arises from different sites of integration of DNA between different clones. HeLa Tet-Off cells containing the pTet-Off vector stably transfected and constitutively expressing the tetracycline-controlled transactivator tTA (composed of a fusion of the TetR and VP16 activation domain) were purchased from Clontech. The pBS(SK−)/PSHI cDNA containing the full length COX-1 gene (kindly supplied by Dr Stephen Prescott, University of Utah, Salt Lake City, Utah) was used as the template plasmid. The response plasmid pTRE2 (containing the minimal cytomegalovirus promoter containing Tet-operator sequences cloned upstream of the cDNA to be expressed) and the plasmid for antibiotic selection (pTK-hygromycin) for use with the Tet-Off system were purchased from Clontech. The COX-1 gene was excised from the template plasmid and ligated at the Bam H1 site of the pTRE2 vector. The orientation of the insert was verified by dideoxy DNA sequencing using the sequence specific primers: 5′-[…]-3′ (SEQ ID No 8) and 5′-[…]-3′ (SEQ ID No 9) (Clontech). Cells were plated in 12 well dishes in complete medium containing 10 μg/ml G418 per well and were allowed to attach and grow overnight. The pTRE2 vector containing the COX-1 gene (2 μg) was co-transfected with pTK-hygromycin (0.1 μg, which contains the hygromycin gene under control of the minimal thymidine kinase (TK) promoter) into the HeLa Tet-Off cell line at about 80% confluency using pfx-5 (Invitrogen, De Schelp, Netherlands) diluted in Optimem (Gibco). Cells were incubated for 4 hrs at 37° C. in 5% humidified CO2. Thereafter the medium was replaced with fresh complete medium containing no G418. Cells were allowed to grow for 72 hrs. Transfected cells were then seeded together with wild-type cells. Clones were selected against 200 μg/ml hygromycin in the presence of 1 μg/ml DOX. At least 50 hygromycin-resistant clones were picked using cloning cylinders. Clones were allowed to grow under continuous selection with hygromycin in the presence of DOX and then screened for the ability to express COX-1 in the presence and absence of DOX by immunoblot analysis. […]

[4] = system: EP1 receptor in COX-1 Tet-Off HeLa cells; assay: Inositol phosphate accumulation (EP1 receptor activity); settings: induced expression of COX-1 and PGE2 stimulation; data not shown
Text: No significant difference in basal cAMP production was detected in uninduced and induced cells (FIG. 6). […] The activity of EP1 receptor was investigated by measuring inositol phosphate accumulation (41).

[5] = system: EP2/EP4 receptors in cervical tissue; assay: cAMP production in cervical tissues in response to exogenous PGE2 or forskolin; settings: 300 nM PGE2 or 50 μM forskolin, 5 minutes, after overnight indomethacin
Method: Cervical tissues (n=6 squamous carcinoma, n=1 adenocarcinoma and n=5 normal cervix) were sectioned finely, divided equally into three aliquots and incubated overnight in Dulbecco's Modified Eagle Medium (DMEM) (Sigma), containing 10% foetal calf serum, 0.3 mg/ml L-glutamine, 100 IU penicillin and 100 μg streptomycin and 3 μg/ml indomethacin. […] Tissue sections were harvested-by centrifugation at 2000 g. The supernatant was discarded and the tissue homogenised in 0.1 M HCl. cAMP concentration and protein concentrations were determined as mentioned above

[6] = system: cAMP-linked PGE2 receptors in HeLa COX-1 Tet-Off cells; assay: PGE2 stimulation and cAMP measurement in HeLa COX-1 Tet-Off cells; settings: cells grown in medium containing indomethacin, COX-1 induced 48 hrs
Method: Cells (2×10^5) were plated in 6 well dishes containing 4 ml/well of complete medium containing DOX. Cells were allowed to attach overnight. The following day, the cells were synchronised by incubating with fresh medium containing no foetal bovine serum for 24 hrs. COX-1 Tet-Off cells were induced, by DOX withdrawal from the culture medium for 48 hrs at 37° C. in humidified 5% CO2 in the presence or absence of indomethacin. In parallel, control uninduced cells were supplemented daily with DOX. Thereafter the culture medium was removed and replaced with serum-free medium containing IBMX (Sigma) to a final concentration of 1 mM for 40 mins at 37° C. […] Following stimulation, the medium was removed and the cells lysed in 0.1M HCl. cAMP concentration was quantified by ELISA using a cAMP kit (Biomol, Affiniti, Exeter, UK) as per the manufacturer's protocol and normalised to protein concentration of the lysate. Protein concentrations were determined using protein assay kits (Bio-Rad).

[7] = system: cervical carcinoma tissue and normal cervix; assay: Basal cAMP levels in cervical tissues cultured overnight
Method: Determination of Basal CAMP levels in cervical tissues. Initially, basal cAMP levels were measured in cervical tissue (n=7 squamous cell carcinomas and n=5 normal cervix; FIG. 12A). Carcinoma and normal cervical tissues were obtained on the day of surgery/biopsy, sectioned finely and divided equally into three aliquots. The tissue was transported at 4° C. and then incubated in 35 mm tissue culture dishes containing 2 ml of Dulbecco's Modified Eagle Medium (DMEM) (Sigma), containing 10% foetal calf serum, 0.3 mg/ml L-glutamine, 100 IU penicillin and 100 μg streptomycin for 1.5 hours. One aliquot of tissue was snap frozen to determine basal cAMP concentration in the tissue at the time of collection. The other two aliquots were incubated overnight at 37° C. in humidified 5% CO2 in the presence or absence of 3 μg/ml indomethacin [a dual COX enzyme inhibitor (24, 32)]. Subsequently, tissue sections were harvested by centrifugation at 2000 g. The supernatant was discarded and the tissue homogenised in 0.1 M HCl. cAMP concentration was quantified by ELISA using a cAMP kit (Biomol; Affiniti, Exeter, UK) as per the manufacturer's protocol and normalised to protein concentration of the homogenate, Protein concentrations were determined using protein assay kits (Bio-Rad, Hemel Hempstead, UK).

[8] = system: cAMP-dependent PGE2-receptors in HeLa cells; assay: Real-time quantitative RT-PCR of PGE2 receptors after COX-1 overexpression; settings: cells grown in medium containing indomethacin
Text: The Tet-Off expression system we used was developed by Gossen and co-workers (38) to deliver doxycycline-regulated expression based on the high specificity of the Escherichia coli tet repressor-operator-doxycycline interaction. In the Tet-Off expression system each clonal cell line is used as its own control (cells cultured in the presence of DOX) and the overexpression of the integrated target gene is modulated solely by removing DOX from the culture medium. This eliminates the need for a control clonal cell line transfected with vector alone (as used with constitutive stable expression systems) thereby overcoming the inherent variation that arises from different sites of integration of DNA between different clones. HeLa Tet-Off cells containing the pTet-Off vector stably transfected and constitutively expressing the tetracycline-controlled transactivator tTA (composed of a fusion of the TetR and VP16 activation domain) were purchased from Clontech. The pBS(SK−)/PSHI cDNA containing the full length COX-1 gene (kindly supplied by Dr Stephen Prescott, University of Utah, Salt Lake City, Utah) was used as the template plasmid. […]

[9] = COX-1 induced 48 hrs with inhibitor (3 μg/ml indomethacin or 10 μM NS-398), induced without inhibitor 272.2±18.8 nM
[10] = COX-1 induced 72 hrs with inhibitor (3 μg/ml indomethacin or 10 μM NS-398), induced without inhibitor 537±22.5 nM

| Structure (SMILES) | effect on seminal plasma up-regulation of EP2/EP4 receptor expression [1] | effect on COX-1-mediated up-regulation of COX-2 expression [2] | effect on COX-1-mediated up-regulation of PGES expression [2] | effect on COX-1 overexpression [2] | effect on COX-1 associated up-regulation of Ang-1 [3] | effect on COX-1 associated up-regulation of Ang-2 [3] | effect on COX-1 associated up-regulation of bFGF [3] | PGE2 levels in culture medium (HeLa COX-1 Tet-Off cells; [9]) | PGE2 levels in culture medium (HeLa COX-1 Tet-Off cells; [10]) | also measured |
| --- | --- | --- | --- | --- | --- | --- | --- | --- | --- | --- |
| O=S(=O)(NCCNC/C=C/c1ccc(Br)cc1)c1cccc2cnccc12 [H-89] | partially abolished | – | – | – | – | – | – | – | – | – |
| CS(=O)(=O)Nc1ccc([N+](=O)[O-])cc1OC1CCCCC1 [NS-398] | partially abolished | No significant change; also recorded: Partial inhibition | Partial inhibition | no alteration | partially reduced; also recorded: partially inhibited | partially reduced; also recorded: partially inhibited | partially reduced; also recorded: partially inhibited | 132 ± 26.2 nM | 268 ± 17 nM | delay of induction of PGES by COX-1 overexpression ([2]; treatment of HeLa cells with NS-398): 24 h; effect on COX-1 associated up-regulation of VEGF [3]: partially reduced; also recorded: partially inhibited |
| CCCCC[C@H](O)/C=C/[C@H]1[C@H](O)CC(=O)[C@@H]1C/C=C\CCCC(=O)O [PGE2, prostaglandin E2] | – | – | – | – | – | – | – | – | – | inositol phosphate accumulation [4]: No inositol phosphate accumulation above basal |
| C=C[C@@]1(C)CC(=O)[C@]2(O)[C@@]3(C)[C@@H](O)CCC(C)(C)[C@@H]3[C@H](O)[C@H](OC(C)=O)[C@@]2(C)O1 [forskolin] | – | – | – | – | – | – | – | – | – | fold induction of cAMP generation in cancer tissue [5]: 55.3±15.84 fold; fold induction of cAMP generation in normal cervix [5]: 9.18±1.59 fold |
| COc1ccc2c(c1)c(CC(=O)O)c(C)n2C(=O)c1ccc(Cl)cc1 [indomethacin] | abolished | inhibited; also recorded: abolished | inhibited; also recorded: abolished | no alteration | abolished | abolished | abolished | 62 ± 7 nM | 76 ± 10.7 nM | effect on elevated cAMP production in COX-1 overexpressing cells in response to PGE2 [6]: abolished; cAMP concentration in carcinoma tissue ([7]; overnight culture in presence of indomethacin, without indomethacin 64.2±5.1): 2.59±0.64 pmol cAMP/mg protein; cAMP concentration in normal cervical tissue ([7]; overnight incubation in presence of indomethacin, without indomethacin 11.96±1.35): 4.0±0.7 pmol cAMP/mg protein; effect on COX-1 associated up-regulation of Ang-1 ([3]; listed as Indomethacin): inhibited; effect on COX-1 associated up-regulation of Ang-2 ([3]; listed as Indomethacin): inhibited; effect on COX-1 associated up-regulation of VEGF ([3]; listed as Indomethacin): inhibited; effect on COX-1 associated up-regulation of bFGF ([3]; listed as Indomethacin): inhibited; effect on COX-1 associated up-regulation of VEGF ([3]; listed as indormethacin): abolished; effect on up-regulation of the cAMP-dependent PGE2-receptors by COX-1 overexpression [8]: inhibited |
